Key:
[1] = system: C57BL/6 (CD45.2+) mice; experiment: MOG-induced EAE model with congenic transplant; format: in vivo, mouse
Description: Experimental Autoimmune Encephalomyelitis (EAE) Model: C57BL/6 (CD45.2) mice were induced with MOG35-55 peptide in complete Freund's adjuvant, followed by the administration of pertussis toxin (PTX) at 4 h post MOG35-55 and 24 h post initial dose of PTX. Disease onset was around 9-12 days post induction. Animals were scored twice a day for a duration of 80 days post EAE induction. EAE Clinical Scoring Scale: 1-limp tail; 2-partial hind limb paralysis; 3-Complete hind limb paralysis; 4-Complete hind and partial front limb paralysis; 5-moribund bound. Animals were euthanized at 2 consecutive scores of 4. Terminal analysis of tissues (peripheral blood, lymph nodes) were evaluated to determine chimerism and immune component of the relapsing EAE mice. Lymph node cells were stimulated (S) with PMS/lonomycin (50 ng/mL) and Brefeldin A (1 μg/mL) or not stimulated (NS) and evaluated for T cell chimerism (donor, host) and IL-17 production.
To induce EAE in a murine model, C57BL/6 (CD45.2+) mice were induced with MOG35_55 peptide in complete Freund's adjuvant, followed by the administration of pertussis toxin (PTX). […]

[2] = Quintieri et al. 2005; cited from earlier work

With CCCCCCCCc1ccc(CCC(N)(CO)CO)cc1 [FTY-720, reference compound] the Incidence ([1]; Table 3, EAE incidence, treatment groups of FIG. 5G) was 100%, the “Mean Time to EAE onset” value ([1]; Table 3, treatment groups of FIG. 5G) was 12 days and the “peak disease score in active EAE” value ([1]; treatment at day 13) was 2.3. For the same compound, the “progression of disease activity in active EAE” value ([1]; treatment on day 10 or day 13) was “halted disease”.
In the case of COc1cccc2c1C(=O)c1c(O)c3c(c(O)c1C2=O)C[C@@](O)(C(=O)CO)C[C@@H]3O[C@H]1CC2[C@H](O[C@@H]3[C@@H](OC)OCCN23)[C@H](C)O1 (some centres unmarked) [PNU-159682], the “cytotoxicity relative to the parent nemorubicin” value [2] is given as “greater than 3000 fold”.

Source: patent publication US12403200B2, “Methods and compositions for treating autoimmune diseases” (priority 2019, dated 2025)
